The test system of test [1] is Escherichia coli Tol C mutant. The test can be described thus: Antimicrobial spectrum, broth microdilution MIC. Format: cell-based. To be noted: E. coli tolC mutant. How it is done:
(§1) Minimum Inhibitory Concentrations (MICs) were determined in accordance with the Clinical and Laboratory Standards Institute (CLSI) methodology against aerobic bacteria (CLSI M07-A8) (see Clinical and Laboratory Standards Institute. 2009. Methods for dilution antimicrobial susceptibility tests for bacteria that grow aerobically. CLSI document M07-A8, Vol. 29, No. 2.) by the broth microdilution method with cation-adjusted Mueller-Hinton broth (CA-MHB) medium for the majority of organisms, except for Haemophilus influenza, where Haemophilis test medium (HTM) broth was used. Descriptions of the individual organisms can be found in the table. Where possible, ATCC standard strains were tested.
(§2) The inoculum density for the susceptibility testing was standardized to give a final inoculum of approximately 5×10^5 CFU/mL.
(§3) Stock solutions of the compounds were prepared in DMSO at concentrations of 1 mg/mL. Linezolid was prepared in DMSO at a concentration of 2 mg/mL. Stock solutions of all compounds were diluted into CA-MHB to give a range of two-fold dilutions, depending upon the sensitivity of the organism being tested.
Background: Broth dilution looks for growth in wells or tubes with falling amounts of substance.

In test [2] the test system is Haemophilus influenzae ATCC 49247; reference strain. The test can be described thus: Antimicrobial spectrum, broth microdilution MIC. Format: cell-based. To be noted: H. influenza ATCC 49247. How it is done:
as §1, §2, §3

Test [3] deals with Staphylococcus aureus NRS120; LZD-R. Put plainly: Antimicrobial spectrum, broth microdilution MIC. To be noted: S. aureus NRS120. Format: cell-based. How it is done: as §1, §2, §3
Test [4] relates to Staphylococcus aureus NRS121; LZD-R. The test can be described thus: Antimicrobial spectrum, broth microdilution MIC. Format: cell-based. To be noted: S. aureus NRS121. How it is done: as §1, §2, §3
For test [5], the system named is Staphylococcus aureus ATCC 29213; reference strain MSSA. Put plainly: Antimicrobial spectrum, broth microdilution MIC. It counts as cell-based. To be noted: S. aureus ATCC 29213. How it is done:
as §1, §2, §3

The test system of test [6] is Moraxella catarrhalis ATCC 8176; b-lactamase negative. Put plainly: Antimicrobial spectrum, broth microdilution MIC. The note with it: M. catarrhalis ATCC 8176. Format: cell-based. How it is done: as §1, §2, §3
For test [7], the system named is Escherichia coli ATCC 25922; reference strain. The test can be described thus: Antimicrobial spectrum, broth microdilution MIC. It counts as cell-based. The note with it: E. coli ATCC 25922. As for the experimental part:
as §1, §2, §3

Test [8] has as its system Staphylococcus aureus NRS119; LZD-R. The test can be described thus: Antimicrobial spectrum, broth microdilution MIC. Format: cell-based. The note with it: S. aureus NRS119. As for the experimental part:
as §1, §2, §3

Test [9] deals with Staphylococcus aureus ATCC 43300; reference strain MRSA. The test can be described thus: Antimicrobial spectrum, broth microdilution MIC. It counts as cell-based. The note with it: S. aureus ATCC 43300. How it is done:
as §1, §2, §3

Test [10] relates to Methicillin-sensitive Staphylococcus aureus strain ATCC 29213. Put plainly: In vivo efficacy, peritonitis model of S. aureus infection. To be noted: IV, 20% CD + 2H2T, IP infection, inoculum 8.7 log10, female Swiss albino mice, 3 days post-infection. The source says: The concept of studying the in vivo effect of an antibacterial compound by treating intraperitoneally infected mice was introduced in 1911 for optochin against pneumococci (Morgenroth and Levy, 1911). The popularity of the model comes from the ease of its use with short-duration experiments, reproducible infections and simple end-points.
Methicillin-sensitive Staphylococcus aureus strain ATCC 29213 was used to infect female Swiss albino mice. A Brain Heart Infusion (BHI) broth bacterial culture was inoculated the day before infection, incubated at 37° C. overnight and diluted in fresh BHI broth to the desired concentration. I.p. injection of ˜5×10^8-5×10^9 colony forming units (CFU) was performed in either of the lateral lower quadrants of the abdomen. After inoculation, mice were kept in their cages under daily observation for development of signs of infection or death. For the treatment of mice, both the p.o. and i.v. routes were used and each mouse was treated individually by gavage or by i.v. injection. Both solutions (p.o. and i.v.) and suspensions (p.o.) were tested in this model. The parameter used for monitoring the course of infection and the effect of treatment was death or survival of the animals over 3 days post-infection. […]

In test [11] the target is S. aureus ATCC 29213 FabI (Staphylococcus aureus (strain MRSA252), UniProt Q6GI75). Put plainly: Staphylococcus aureus FabI enzyme inhibition assay. Format: biochemical. The note with it: pH 6.5, 30 minutes at room temperature.

Converted amounts (≈) assume the structure as drawn.

Consider `O=C1CCc2cc(/C=C/C(=O)N3C[C@@H]4CC(c5ccccc5)=C[C@@H]4C3)cnc2N1` (single isomer, unassigned) [compound 14], for which the MIC90 in test [1] amounted to 0.25 µg/mL (≈ 0.649 µM); in [2], 0.25 µg/mL (≈ 0.649 µM); in test [3], 0.03 µg/mL (≈ 0.0778 µM); in test [4], 0.03 µg/mL (≈ 0.0778 µM); in test [5], 0.03 µg/mL (≈ 0.0778 µM); in [6], 0.015 µg/mL (≈ 0.0389 µM). Also, the results for the MIC90 in [7], in [8] and in test [9] were 4 µg/mL (≈ 10.4 µM), 0.03 µg/mL (≈ 0.0778 µM) and 0.03 µg/mL (≈ 0.0778 µM), respectively. In addition, the “% Survival” value is 75% in test [10] (QD 2.5 mpk) and 100% in [10] (QD 5 mpk). Further, the “FabI IC50” value in [11] turned out to be 0.40 µg/mL.

(Values after US9617262B2, “Antibacterial cyclopental[C]pyrrole substituted 3,4-dihydro-1H-[1,8]naphthyridinones” (Janssen Sciences Ireland UC, priority 2011, dated 2017).)
